Data as given in US12077503B2, “Substituted cyclic amides and their use as herbicides” (FMC CORPORATION, priority 2015, dated 2024).

Assays:
Type in all cases: in vivo
[1] = system: ryegrass, Italian (Italian ryegrass, Lolium multiflorum); test: Test A preemergence; conditions: Lolium multiflorum, pre-emergence, 240 h, 0 to 100 scale where 0 is no effect and 100 is complete control, read-out: Ryegrass, Italian plant response rating
Summary of the method: (§1)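 Ratings of 0 (no effect) to 100 (complete control) come from visual comparison with untreated controls roughly 10 d after treatment. Test chemicals, formulated in a non-phytotoxic solvent mixture with surfactant, were applied either as a preemergence directed soil spray on seeded soil or postemergence to one- to two-leaf plants 2 to 10 cm tall.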

[2] = system: pigweed (Amaranthus retroflexus); test: Test A preemergence; conditions: Amaranthus retroflexus, pre-emergence, 240 h, 0 to 100 scale where 0 is no effect and 100 is complete control, read-out: Pigweed plant response rating
[3] = system: barnyardgrass (Echinochloa crus-galli); test: Test A preemergence; conditions: Echinochloa crus-galli, pre-emergence, 240 h, 0 to 100 scale where 0 is no effect and 100 is complete control, read-out: Barnyardgrass plant response rating
Summary of the method: as §1

Kochia (Kochia scoparia) [4] = test: Test A preemergence; conditions: Bassia scoparia, pre-emergence, 240 h, 0 to 100 scale where 0 is no effect and 100 is complete control, read-out: Kochia plant response rating
Summary of the method: as §1

[5] = system: giant foxtail (Setaria faberii); test: Test A preemergence; conditions: Setaria faberi, pre-emergence, 240 h, 0 to 100 scale where 0 is no effect and 100 is complete control, read-out: Foxtail, Giant plant response rating
Summary of the method: as §1

[6] = system: ragweed (common ragweed, Ambrosia elatior); test: Test A preemergence; conditions: Ambrosia artemisiifolia, pre-emergence, 240 h, 0 to 100 scale where 0 is no effect and 100 is complete control, read-out: Ragweed plant response rating
Summary of the method: as §1

[7] = system: barnyardgrass (Echinochloa crus-galli); test: Test B flooded paddy test; conditions: Echinochloa crus-galli, 250 g ai/ha, Flood; 0 to 100 scale where 0 is no effect and 100 is complete control; read-out: Barnyardgrass plant response rating
Summary of the method: (§2)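 Percent control, visually estimated after 13–15 d in the greenhouse on a 0–100 basis, compares treated pots with untreated ones; compound was put into paddy water 3 cm above the soil when plants had two leaves.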

[8] = system: ducksalad (Heteranthera limosa); test: Test B flooded paddy test; conditions: Heteranthera limosa, 250 g ai/ha, Flood; 0 to 100 scale where 0 is no effect and 100 is complete control; read-out: Ducksalad plant response rating
Summary of the method: as §2

rice (Oryra sativa) = test: Test B flooded paddy test; conditions: Oryza sativa, 250 g ai/ha, Flood; 0 to 100 scale where 0 is no effect and 100 is complete control; read-out: Rice plant response rating
Summary of the method: as §2

[9] = system: sedge, umbrella (small-flower umbrella sedge, Cyperus difformis); test: Test B flooded paddy test; conditions: Cyperus difformis, 250 g ai/ha, Flood; 0 to 100 scale where 0 is no effect and 100 is complete control; read-out: Sedge, Umbrella plant response rating
Summary of the method: as §2

[10] = system: ryegrass, Italian (Italian ryegrass, Lolium multiflorum); test: Test A postemergence; conditions: Lolium multiflorum, post-emergence, 240 h, Postemergence, read-out: Ryegrass, Italian plant response rating (0 to 100 scale)
Summary of the method: as §1

[11] = system: pigweed (Amaranthus retroflexus); test: Test A postemergence; conditions: Amaranthus retroflexus, post-emergence, 240 h, Postemergence, read-out: Pigweed plant response rating (0 to 100 scale)
Summary of the method: as §1

[12] = system: barnyardgrass (Echinochloa crus-galli); test: Test A postemergence; conditions: Echinochloa crus-galli, post-emergence, 240 h, Postemergence
Summary of the method: as §1

Kochia (Kochia scoparia) [13] = test: Test A postemergence; conditions: Bassia scoparia, post-emergence, 240 h, Postemergence, read-out: Kochia plant response rating (0 to 100 scale)
Summary of the method: as §1

corn (Zea mays) = test: Test A postemergence; conditions: Zea mays, post-emergence, 240 h, Postemergence, read-out: Corn plant response rating (0 to 100 scale)
Summary of the method: as §1

[14] = system: giant foxtail (Setaria faberii); test: Test A postemergence; conditions: Setaria faberi, post-emergence, 240 h, Postemergence, read-out: Foxtail, Giant plant response rating (0 to 100 scale)
Summary of the method: as §1

[15] = system: blackgrass (Alopecurus myosuroides); test: Test A postemergence; conditions: Alopecurus myosuroides, post-emergence, 240 h, Postemergence, read-out: Blackgrass plant response rating (0 to 100 scale)
Summary of the method: as §1

[16] = system: Galium (catchweed bedstraw, Galium aparine); test: Test A postemergence; conditions: Galium, post-emergence, 240 h, Postemergence, read-out: Galium plant response rating (0 to 100 scale)
Summary of the method: as §1

[17] = system: ragweed (common ragweed, Ambrosia elatior); test: Test A postemergence; conditions: Ambrosia artemisiifolia, post-emergence, 240 h, Postemergence, read-out: Ragweed plant response rating (0 to 100 scale)
Summary of the method: as §1

[18] = system: wheat (Triticum aestivum); test: Test A postemergence; conditions: Triticum aestivum, post-emergence, 240 h, Postemergence, read-out: Wheat plant response rating (0 to 100 scale)
Summary of the method: as §1

[19] = 125 g ai/ha, preemergence, visual injury rating, approximately 10 d
[20] = 125 g ai/ha, visual rating about 10 d after treatment
[21] = 31 g ai/ha, 0 is no effect, 100 is complete control

CN1C[C@H](c2ccc(C(F)(F)F)cc2)[C@@H](C(=O)Nc2ccccc2-n2cccn2)C1=O [Compound 1283]
0%: pest or weed control at 31 g/ha ([1]; 31 g ai/ha, Preemergence) | pest or weed control at 125 g/ha [1, 19] | pest or weed control at 31 g/ha ([2]; 31 g ai/ha, Preemergence) | pest or weed control at 125 g/ha [2, 19] | pest or weed control at 31 g/ha ([3]; 31 g ai/ha, Preemergence) | pest or weed control at 125 g/ha [3, 19] | pest or weed control at 31 g/ha (Kochia (Kochia scoparia) [4]; 31 g ai/ha, Preemergence) | pest or weed control at 125 g/ha (Kochia (Kochia scoparia) [4]; [19]) | pest or weed control at 31 g/ha ([5]; 31 g ai/ha, Preemergence) | pest or weed control at 125 g/ha [5, 19] | pest or weed control at 31 g/ha ([6]; 31 g ai/ha, Preemergence) | pest or weed control at 125 g/ha [6, 19] | pest or weed control at 250 g/ha [7] | pest or weed control at 250 g/ha [8] | pest or weed control at 250 g/ha (rice (Oryra sativa)) | pest or weed control at 250 g/ha [9] | pest or weed control at 125 g/ha [10, 20] | pest or weed control at 31 g/ha [10, 21] | pest or weed control at 125 g/ha [11, 20] | pest or weed control at 31 g/ha [11, 21] | pest or weed control at 125 g/ha ([12]; 125 g ai/ha, visual rating about 10 d after treatment, read-out: Barnyardgrass plant response rating (0 to 100 scale, 0 no effect, 100 complete control)) | pest or weed control at 31 g/ha ([12]; 31 g ai/ha, 0 is no effect, 100 is complete control, read-out: Barnyardgrass plant response rating (0 to 100 scale)) | pest or weed control at 125 g/ha (Kochia (Kochia scoparia) [13]; [20]) | pest or weed control at 31 g/ha (Kochia (Kochia scoparia) [13]; [21]) | plant injury at 125 g/ha (corn (Zea mays); [20]) | plant injury at 31 g/ha (corn (Zea mays); [21]) | pest or weed control at 125 g/ha [14, 20] | pest or weed control at 31 g/ha [14, 21] | pest or weed control at 125 g/ha [15, 20] | pest or weed control at 31 g/ha [15, 21] | pest or weed control at 125 g/ha [16, 20] | pest or weed control at 31 g/ha [16, 21] | pest or weed control at 125 g/ha [17, 20] | pest or weed control at 31 g/ha [17, 21] | plant injury at 125 g/ha [18, 20] | plant injury at 31 g/ha [18, 21]
